SMILES strings stand for the structures. Read-outs that look alike come from different tables or passages of the source.

Three molecules from US8309685B2 (Celgene Avilomics Research, Inc., priority 2007, dated 2012) can be followed below.

Data set [1] deals with T1, A156T mutant of the HCV NS3/4A 1b protease enzyme (Hepatitis C virus genotype 1b, UniProt P26663, A1182T).
T1 construct: 10× stocks of NS3/4A protease enzyme from Bioenza (Mountain View, Calif.); purchased Bioenza (Mountain View, Calif.)
The experiment in a line: HCV Protease FRET Assay (IC50), A156T mutant. The class given is biochemical.

Data set [2] addresses T2, wild type HCV NS3/4A 1b protease enzyme (Hepatitis C virus genotype 1b, UniProt P26663).
T2 construct: 10× stocks of NS3/4A protease enzyme from Bioenza (Mountain View, Calif.); purchased Bioenza (Mountain View, Calif.)
The experiment in a line: HCV Protease FRET Assay (IC50_APP), wild type. As to conditions: read-out: IC50_APP, WT; apparent IC50, wild type NS3/4A 1b. It counts as biochemical.

Data set [3] has as its system cell line ET (luc-ubi-neo/ET), human Huh7 hepatoma cell line. Put plainly: Method A: cytotoxicity in ET replicon cells (CytoTox-1). The conditions noted are these: concentration decreasing cell viability by 50%, 72 hr. The class given is cell-based. In a few lines:
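ET cells (Huh7 carrying luciferase HCV replicon), 5×10^3 cells/well, given six 3-fold compound concentrations in DMEM with 5% FBS. After 72 hr, while subconfluent, cell number was measured with CytoTox-1 reagent. Interferon alpha-2b served as positive control.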
(Replicon systems follow genome replication, usually without infectious particles.)

The target in data set [4] is T1, A156T mutant of the HCV NS3/4A 1b protease enzyme. Put plainly: HCV Protease FRET Assay (IC50_APP), A156T mutant. It counts as biochemical.
Data set [5] relates to HCV RNA replicon in cell line ET (luc-ubi-neo/ET), human Huh7 hepatoma. Put plainly: Method A: HCV RNA replicon antiviral assay (luciferase, ET cell line). The class given is cell-based, Hepatitis C virus. As to conditions: Hepatitis C virus, Huh-7. The gist of the method:
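Six 3-fold dilutions of each drug were tested on subconfluent luc-ubi-neo/ET Huh7 replicon cells (5×10^3/well) for 72 hr at 37 °C. EC50 and EC90 came from luciferase read-out, IC50 from CytoTox-1 cell number, and […]; interferon alpha-2b was run each time as control.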

Data set [6] concerns the target T3, D168A mutant of the HCV NS3/4A 1b protease enzyme (Hepatitis C virus genotype 1b, UniProt P26663, D1194A).
T3 construct: 10× stocks of NS3/4A protease enzyme from Bioenza (Mountain View, Calif.); purchased Bioenza (Mountain View, Calif.)
Put plainly: HCV Protease FRET Assay (IC50_APP), D168A mutant. It counts as biochemical.

Where [7] appears, read: read-out: Inhibition, HCV A156T, A156T enzyme, FRET assay.
[8] abbreviates: apparent IC50, A156T mutant; read-out: IC50_APP, HCV A156T.
The mark [9] stands for this setting: Replicon, assay of Example 22, 72 hr, read-out: Inhibition, Replicon.
Setting [10] is: assay described in Example 22, read-out: Replicon (IC50).
The mark [11] stands for this setting: apparent IC50, D168A mutant; read-out: IC50_APP, HCV D168A.

Regarding `C=CC(=O)NC[C@H](NC(=O)OC(C)(C)C)C(=O)N1C[C@H](Oc2cc(-c3ccccc3)nc3cc(OC)ccc23)C[C@H]1C(=O)N[C@]1(C(=O)NS(=O)(=O)c2ccccc2)C[C@H]1C=C` [Compound I-3, N-[(1,1-dimethylethoxy)carbonyl]-3-[(2-propenoyl)amino]-L-alanyl-(4R)-4-[(7-methoxy-2-phenyl-4-quinolinyl)oxy]-L-prolyl-1-amino-2-ethenyl-N-(phenylsulfonyl)-(1R,2S)-cyclopropanecarboxamide], the IC50 in data set [1] (read-out: Comparative IC50 Values, A156T, biochemical assay) is 0.018 µM; in data set [1] (setting [7]), 0.01 to 0.1 µM; in data set [2], less than 0.01 µM; in data set [4] (setting [8]) it was 1 to 10 µM; in data set [5] (setting [9]), 0.01 to 0.1 µM; in data set [5] (WT, cell-based assay, methods of the Examples, read-out: Comparative IC50 Values, WT), 0.02 µM. Further, the IC50 in data set [5] (setting [10]) is 0.01 to 0.1 µM; in data set [6] (setting [11]), 1 to 10 µM. Besides, in data set [3], the “Inhibition, Cytotoxicity” value was “E (IC50≧10,000 nM)”.

With `C=C[C@@H]1C[C@]1(NC(=O)[C@@H]1C[C@@H](Oc2cc(-c3ccccc3)nc3cc(OC)ccc23)CN1C(=O)[C@H](CNC(=O)CCl)NC(=O)OC(C)(C)C)C(=O)NS(=O)(=O)c1ccccc1` [Compound I-7, N-[(1,1-dimethylethoxy)carbonyl]-3-[(chloroacetyl)amino]-L-alanyl-(4R)-4-[(7-methoxy-2-phenyl-4-quinolinyl)oxy]-L-prolyl-1-amino-2-ethenyl-N-(phenylsulfonyl)-(1R,2S)-cyclopropanecarboxamide], the IC50 is 0.01 to 0.1 µM in data set [1] (setting [7]); less than 0.01 µM in data set [2]; 0.1 to 1 µM in data set [4] (read-out: IC50_APP, HCV A156T; apparent IC50, A156T mutant); 0.01 to 0.1 µM in data set [5] (setting [9]); 0.01 to 0.1 µM in data set [5] (setting [10]); 0.1 to 1 µM in data set [6] (read-out: IC50_APP, HCV D168A; apparent IC50, D168A mutant). For the same molecule, in data set [3], the “Inhibition, Cytotoxicity” value is listed as “E (IC50≧10,000 nM)”. The IC90 in data set [5] (assay described in Example 22) is 0.1 to 1 µM.

Regarding `C=CC(=O)NCC(=O)N1C[C@H](Oc2cc(-c3ccccc3)nc3cc(OC)ccc23)C[C@H]1C(=O)N[C@]1(C(=O)NS(=O)(=O)c2ccccc2)C[C@H]1C=C` [Compound I-27, (2S,4R)-1-(2-acrylamidoacetyl)-4-(7-methoxy-2-phenylquinolin-4-yloxy)-N-((1R,2S)-1-(phenylsulfonylcarbamoyl)-2-vinylcyclopropyl)pyrrolidine-2-carboxamide], the IC50 was 0.01 to 0.1 µM in data set [1] (setting [7]); less than 0.01 µM in data set [2]; 0.1 to 1 µM in data set [4] (setting [8]); 0.01 to 0.1 µM in data set [5] (setting [9]); 0.1 to 1 µM in data set [5] (setting [10]); 0.1 to 1 µM in data set [6] (setting [11]). Also, the “Inhibition, Cytotoxicity” value in data set [3] was “D (IC50>1000 nM and <10,000 nM)”. The IC90 in data set [5] (assay described in Example 22) is 0.1 to 1 µM.

As usually defined, the IC90 is the concentration at which the effect reaches the 90% level.
